Data taken from US7507727B2, “Substituted quinobenzoxazine analogs and methods of using thereof” (Cylene Pharmaceuticals, Inc., priority 2003, dated 2009).

target: c-Myc template DNA (c-myc quadruplex); assay: Quadruplex binding / stop assay (Taq polymerase arrest, capillary electrophoresis); conditions: read-out: S DATA; Table 1D, stop assay data

| SMILES | IC50 |
| --- | --- |
| CCOCCCNC(=O)c1cn2c3c(c(N4CCC(N)C4)c(F)cc3c1=O)Oc1cc3ccccc3cc1-2 (stereo not drawn) [compound 1697] | > 15 µM |
| COc1cccc(CCNC(=O)c2cn3c4c(c(N5CCC(N)C5)c(F)cc4c2=O)Oc2cc4ccccc4cc2-3)c1 (stereo not drawn) [compound 1698] | > 15 µM |
| COc1ccc2[nH]cc(CCNC(=O)c3cn4c5c(c(N6CCC(N)C6)c(F)cc5c3=O)Oc3cc5ccccc5cc3-4)c2c1 (stereo not drawn) [compound 1699] | 1.75 µM |
| NC1CCN(c2c(F)cc3c(=O)c(C(=O)NCC4CC4)cn4c3c2Oc2cc3ccccc3cc2-4)C1 (stereo not drawn) [compound 1700] | > 15 µM |
| NC1CCN(c2c(F)cc3c(=O)c(C(=O)NCCc4cccs4)cn4c3c2Oc2cc3ccccc3cc2-4)C1 (stereo not drawn) [compound 1701] | > 15 µM |
| COc1cccc(CCNC(=O)c2cn3c4c(c(N5CCC(N)C5)c(F)cc4c2=O)Oc2cc4ccccc4cc2-3)c1OC (stereo not drawn) [compound 1702] | > 15 µM |
| NC1CCN(c2c(F)cc3c(=O)c(C(=O)NCC(O)c4ccccc4)cn4c3c2Oc2cc3ccccc3cc2-4)C1 (stereo not drawn) [compound 1703] | > 15 µM |
| NC1CCN(c2c(F)cc3c(=O)c(C(=O)NCC(O)CO)cn4c3c2Oc2cc3ccccc3cc2-4)C1 (stereo not drawn) [compound 1704] | 1.75 µM |
| COc1ccc(CCNC(=O)c2cn3c4c(c(N5CCC(N)C5)c(F)cc4c2=O)Oc2cc4ccccc4cc2-3)cc1OC (stereo not drawn) [compound 1705] | > 15 µM |
| NC1CCN(c2c(F)cc3c(=O)c(C(=O)NCCc4ccc(O)c(O)c4)cn4c3c2Oc2cc3ccccc3cc2-4)C1 (stereo not drawn) [compound 1706] | > 15 µM |
| NC1CCN(c2c(F)cc3c(=O)c(C(=O)NCCc4ccc(O)cc4)cn4c3c2Oc2cc3ccccc3cc2-4)C1 (stereo not drawn) [compound 1707] | > 15 µM |
| C[C@@H](O)CNC(=O)c1cn2c3c(c(N4CCC(N)C4)c(F)cc3c1=O)Oc1cc3ccccc3cc1-2 (stereo partly drawn) [compound 1708] | > 15 µM |
| C[C@H](O)CNC(=O)c1cn2c3c(c(N4CCC(N)C4)c(F)cc3c1=O)Oc1cc3ccccc3cc1-2 (stereo partly drawn) [compound 1709] | > 15 µM |
| CC(C)OCCCNC(=O)c1cn2c3c(c(N4CCC(N)C4)c(F)cc3c1=O)Oc1cc3ccccc3cc1-2 (stereo not drawn) [compound 1710] | > 15 µM |
| COc1ccccc1CCNC(=O)c1cn2c3c(c(N4CCC(N)C4)c(F)cc3c1=O)Oc1cc3ccccc3cc1-2 (stereo not drawn) [compound 1711] | > 15 µM |
| CC1CCCN(CCCNC(=O)c2cn3c4c(c(N5CCC(N)C5)c(F)cc4c2=O)Oc2cc4ccccc4cc2-3)C1 (stereo not drawn) [compound 1712] | > 15 µM |
| CC1CCCC(C)N1CCCNC(=O)c1cn2c3c(c(N4CCC(N)C4)c(F)cc3c1=O)Oc1cc3ccccc3cc1-2 (stereo not drawn) [compound 1713] | 0.75 µM |
| CN(C)c1cccc(CNC(=O)c2cn3c4c(c(N5CCC(N)C5)c(F)cc4c2=O)Oc2cc4ccccc4cc2-3)c1 (stereo not drawn) [compound 1714] | > 15 µM |
| CN(C)c1ccccc1CNC(=O)c1cn2c3c(c(N4CCC(N)C4)c(F)cc3c1=O)Oc1cc3ccccc3cc1-2 (stereo not drawn) [compound 1715] | > 15 µM |
| NCCCNC(=O)c1cn2c3c(c(N4CCC(N)C4)c(F)cc3c1=O)Oc1cc3ccccc3cc1-2 (stereo not drawn) [compound 1716] | 0.75 µM |
| CN1CCC(NC(=O)c2cn3c4c(c(N5CCC(N)C5)c(F)cc4c2=O)Oc2cc4ccccc4cc2-3)CC1 (stereo not drawn) [compound 1717] | 0.75 µM |
| CCCCN1CCC(CNC(=O)c2cn3c4c(c(N5CCC(N)C5)c(F)cc4c2=O)Oc2cc4ccccc4cc2-3)CC1 (stereo not drawn) [compound 1718] | 1.75 µM |

| SMILES | IC50 |
| --- | --- |
| CCN(CC)CCCC(C)NC(=O)c1cn2c3c(c(N4CCC(c5cnccn5)C4)c(F)cc3c1=O)Oc1cc3ccccc3cc1-2 (stereo not drawn) [compound 1719] | 3 µM |
| CCN(CC)CCCC(C)NC(=O)c1cn2c3c(c(N4CCC(c5cnccn5)C4)ccc3c1=O)Oc1cc3ccccc3cc1-2 (stereo not drawn) [compound 1720] | 1 µM |
| CCN(CC)CCCC(C)NC(=O)c1cn2c3c(c(N4CCC(c5cnccn5)C4)ccc3c1=O)Oc1ccccc1-2 (stereo not drawn) [compound 1721] | 3 µM |
| O=C(NCCN1CCCC1)c1cn2c3c(c(N4CCC(c5cnccn5)C4)ccc3c1=O)Oc1ccccc1-2 (stereo not drawn) [compound 1722] | 3 µM |
| O=C(NCCN1CCCC1)c1cn2c3c(c(N4CCC(c5cnccn5)C4)ccc3c1=O)Oc1cc3ccccc3cc1-2 (stereo not drawn) [compound 1723] | 1.5 µM |
| O=C(NCCN1CCCC1)c1cn2c3c(c(N4CCC(c5cnccn5)C4)c(F)cc3c1=O)Oc1ccccc1-2 (stereo not drawn) [compound 1724] | 11 µM |
| CCN(CC)CCCC(C)NC(=O)c1cn2c3c(c(N4CCC(c5cnccn5)C4)c(F)cc3c1=O)Oc1ccccc1-2 (stereo not drawn) [compound 1725] | 3 µM |
| O=C(NCCN1CCCC1)c1cn2c3c(c(N4CC5CCCNC5C4)c(F)cc3c1=O)Oc1ccccc1-2 (stereo not drawn) [compound 1728] | > 15 µM |
| CCN(CC)CCCC(C)NC(=O)c1cn2c3c(c(N4CC5CCCNC5C4)c(F)cc3c1=O)Oc1ccccc1-2 (stereo not drawn) [compound 1729] | > 15 µM |
| CCN(CC)CCCC(C)NC(=O)c1cn2c3c(c(N4CC5CCCNC5C4)ccc3c1=O)Oc1ccccc1-2 (stereo not drawn) [compound 1730] | > 15 µM |
| O=C(NCCN1CCCC1)c1cn2c3c(c(N4CC5CCCNC5C4)ccc3c1=O)Oc1ccccc1-2 (stereo not drawn) [compound 1731] | > 15 µM |
| CCN(CC)CCCC(C)NC(=O)c1cn2c3c(c(N4CC5CCCNC5C4)ccc3c1=O)Oc1cc3ccccc3cc1-2 (stereo not drawn) [compound 1733] | > 15 µM |
| O=C(NCCN1CCCC1)c1cn2c3c(c(NCC4CCCO4)c(F)cc3c1=O)Oc1cc3ccccc3cc1-2 (stereo not drawn) [compound 1734] | 3 µM |
| CN1CCCC1CCNC(=O)c1cn2c3c(c(NC[C@H]4CCCO4)c(F)cc3c1=O)Oc1cc3ccccc3cc1-2 (stereo partly drawn) [compound 1735] | 2.5 µM |
| CN1CCCC1CCNC(=O)c1cn2c3c(c(NC[C@H]4CCCO4)c(F)cc3c1=O)Oc1cc3ccccc3cc1-2 (stereo partly drawn) [compound 1736] | 3 µM |
| CN1CCCC1CCNC(=O)c1cn2c3c(c(NC[C@@H]4CCCO4)c(F)cc3c1=O)Oc1cc3ccccc3cc1-2 (stereo partly drawn) [compound 1737] | 4 µM |
| CN1CCCC1CCNC(=O)c1cn2c3c(c(F)c(F)cc3c1=O)Oc1cc3ccccc3cc1-2 (stereo not drawn) [compound 1738] | 2.25 µM |
| CN1CCCC1CCNC(=O)c1cn2c3c(c(F)c(F)cc3c1=O)Oc1cc3ccccc3cc1-2 (stereo not drawn) [compound 1739] | 3.3 µM |
| O=C(O)c1cn2c3c(c(NCC4CCCO4)c(F)cc3c1=O)Oc1cc3ccccc3cc1-2 (stereo not drawn) [compound 1740] | 8.5 µM |
| CN1CCC[C@@H]1CCNC(=O)c1cn2c3c(c(N4CCC(c5cnccn5)C4)c(F)cc3c1=O)Oc1cc3ccccc3cc1-2 (stereo partly drawn) [compound 1741] | 0.74 µM |
| CC(C)CC(CO)Nc1c(F)cc2c(=O)c(C(=O)NCCC3CCCN3C)cn3c2c1Oc1cc2ccccc2cc1-3 (stereo not drawn) [compound 1743] | > 15 µM |
| CN1CCCC1CCNC(=O)c1cn2c3c(c(NCC(C)(C)CO)c(F)cc3c1=O)Oc1cc3ccccc3cc1-2 (stereo not drawn) [compound 1744] | > 15 µM |

| SMILES | IC50 |
| --- | --- |
| CN1CCCC1CCNC(=O)c1cn2c3c(c(NCC4OCCO4)c(F)cc3c1=O)Oc1cc3ccccc3cc1-2 (stereo not drawn) [compound 1745] | > 15 µM |
| CC(C)OCCNc1c(F)cc2c(=O)c(C(=O)NCCC3CCCN3C)cn3c2c1Oc1cc2ccccc2cc1-3 (stereo not drawn) [compound 1746] | > 15 µM |
| CC(C)C(CO)Nc1c(F)cc2c(=O)c(C(=O)NCCC3CCCN3C)cn3c2c1Oc1cc2ccccc2cc1-3 (stereo not drawn) [compound 1747] | > 15 µM |
| CN1CCCC1CCNC(=O)c1cn2c3c(c(NC(CO)CC4CCCCC4)c(F)cc3c1=O)Oc1cc3ccccc3cc1-2 (stereo not drawn) [compound 1748] | > 15 µM |
| CN1CCCC1CCNC(=O)c1cn2c3c(c(NC4CCS(=O)(=O)C4)c(F)cc3c1=O)Oc1cc3ccccc3cc1-2 (stereo not drawn) [compound 1749] | 1.95 µM |
| CC(CNc1c(F)cc2c(=O)c(C(=O)NCCC3CCCN3C)cn3c2c1Oc1cc2ccccc2cc1-3)Oc1ccccn1 (stereo not drawn) [compound 1750] | 9.7 µM |
| CN1CCCC1CCNC(=O)c1cn2c3c(c(NC4CCOC(C)(C)C4)c(F)cc3c1=O)Oc1cc3ccccc3cc1-2 (stereo not drawn) [compound 1751] | > 15 µM |
| CN1CCCC1CCNC(=O)c1cn2c3c(c(NCc4ccoc4)c(F)cc3c1=O)Oc1cc3ccccc3cc1-2 (stereo not drawn) [compound 1752] | > 15 µM |
| Cc1cc(CNc2c(F)cc3c(=O)c(C(=O)NCCC4CCCN4C)cn4c3c2Oc2cc3ccccc3cc2-4)no1 (stereo not drawn) [compound 1753] | > 15 µM |
| CN1CCCC1CCN(CC[C@@H]1CCCN1C)C(=O)c1cn2c3c(c(N4CCC(c5cnccn5)C4)c(F)cc3c1=O)Oc1cc3ccccc3cc1-2 (stereo partly drawn) [compound 1754] | 5 µM |
| CN1CCCC1CCNC(=O)c1cn2c3c(c(NCc4ccco4)c(F)cc3c1=O)Oc1cc3ccccc3cc1-2 (stereo not drawn) [compound 1755] | 4.2 µM |
| COc1ccc(CCNc2c(F)cc3c(=O)c(C(=O)NCCN4CCCC4)cn4c3c2Oc2cc3ccccc3cc2-4)cc1OC [compound 1756] | 1.81 µM |
| COc1ccc(CCNc2c(F)cc3c(=O)c(C(=O)NCCC4CCCN4C)cn4c3c2Oc2cc3ccccc3cc2-4)cc1OC (stereo not drawn) [compound 1757] | 9.8 µM |
| CCN(CC)CCCC(C)NC(=O)c1cn2c3c(c(NCCc4ccc(OC)c(OC)c4)c(F)cc3c1=O)Oc1cc3ccccc3cc1-2 (stereo not drawn) [compound 1758] | 9.4 µM |
| COc1ccc(CCNc2c(F)cc3c(=O)c(C(=O)N(C)CCc4ccccn4)cn4c3c2Oc2cc3ccccc3cc2-4)cc1OC [compound 1759] | 10 µM |
| CN1CCCC1CCNC(=O)c1cn2c3c(c(SCCc4cnccn4)c(F)cc3c1=O)Oc1cc3ccccc3cc1-2 (stereo not drawn) [compound 1760] | 1.85 µM |
| CN1CCCC1CCNC(=O)c1cn2c3c(c(-n4cncc4-c4cnccn4)c(F)cc3c1=O)Oc1cc3ccccc3cc1-2 (stereo not drawn) [compound 1761] | 1.75 µM |
| CN1CCC[C@H]1CCNC(=O)c1cn2c3c(c(N4CCC(c5cnccn5)C4)c(F)cc3c1=O)Oc1ccccc1-2 (stereo partly drawn) [compound 1762] | 5.7 µM |
| CN1CCCC1CCNC(=O)c1cn2c3c(c(N4CCC(c5cnccn5)C4)c(F)cc3c1=O)Oc1ccc(Cl)cc1-2 (stereo not drawn) [compound 1764] | 4.8 µM |
| CN1CCCC1CCNC(=O)c1cn2c3c(c(N4CCC(c5cnccn5)C4)c(F)cc3c1=O)Oc1cc(Cl)ccc1-2 (stereo not drawn) [compound 1765] | 3.6 µM |
| C[N+]1([O-])CCC[C@@H]1CCNC(=O)c1cn2c3c(c(N4CCC(c5cnccn5)C4)c(F)cc3c1=O)Oc1cc3ccccc3cc1-2 (stereo partly drawn) [compound 1766] | 6.3 µM |
| O=C(NCCN1CCCC1)c1cn2c3c(c(SCCc4cnccn4)c(F)cc3c1=O)Oc1cc3ccccc3cc1-2 [compound 1767] | 3.2 µM |
